Test results as given in ChEMBL document CHEMBL3885861, “Open TG-GATES”.

Organism: Rattus norvegicus
Assay: Open TG-GATES - Regimen: Daily Repeat
Format: toxicity, organism-based, Sprague-Dawley
Design: regimen Daily Repeat, gender Male, age 6 weeks
Conditions: in vivo, po, route gavage; for APTT / Bas / Eos / Fbg / Hb / Ht / Lym / MCH / MCHC / MCV / Mono / Neu / PT / Plat / RBC / Ret / WBC: tissue Blood; for KIDNEY_L / KIDNEY_R / KIDNEY_TOTAL: tissue Kidney; for LIVER: tissue Liver; for A/G / ALP / ALT / AST / BUN / CRE / Ca / Cl / DBIL / GLC / IP / K / LDH / Na / PL / RALB / TBIL / TC / TG / TP / gamma-GTP: tissue Plasma
[1] = 100 mg/kg, 72 h, dose level Middle, time 3 day
[2] = 100 mg/kg, […], dose level Middle, time 7 day
[3] = 100 mg/kg, […], dose level Middle, time 14 day
[4] = 100 mg/kg, […], dose level Middle, time 28 day
[5] = 300 mg/kg, 72 h, dose level High, time 3 day
[6] = 300 mg/kg, […], dose level High, time 7 day
[7] = 300 mg/kg, […], dose level High, time 14 day
[8] = 300 mg/kg, […], dose level High, time 28 day

CCOC(=O)C(C)(C)Oc1ccc(Cl)cc1 [CLOFIBRATE]
TERMINAL_BW [1]: 242.5 g
APTT [1]: 18.9 s
Bas [1]: 0%
Eos [1]: 1%
Fbg [1]: 210.8 mg/dL
Hb [1]: 13.4 g/dL
Ht [1]: 38.4%
Lym [1]: 80.2%
MCH [1]: 21.6 pg
MCHC [1]: 35%
MCV [1]: 61.8 fL
Mono [1]: 2.6%
Neu [1]: 15.6%
PT [1]: 12.4 s
Plat [1]: 131.7 x10_4/uL
RBC [1]: 621.6 x10_4/ul
Ret [1]: 4.9%
WBC [1]: 117.6 x10_2/uL
KIDNEY_L [1]: 1.1 g
KIDNEY_R [1]: 1.1 g
KIDNEY_TOTAL [1]: 2.2 g
LIVER [1]: 12.5 g
A/G [1]: 1.7
ALP [1]: 1054.4 IU/L
ALT [1]: 38.2 IU/L
AST [1]: 70.2 IU/L
BUN [1]: 16 mg/dL
CRE [1]: 0.4 mg/dL
Ca [1]: 10.8 mg/dL
Cl [1]: 102.6 meq/L
DBIL [1]: 0.076 mg/dL
GLC [1]: 198.4 mg/dL
IP [1]: 6.3 mg/dL
K [1]: 4 meq/L
LDH [1]: 215 IU/L
Na [1]: 141 meq/L
PL [1]: 120 mg/dL
RALB [1]: 3.4 g/dL
TBIL [1]: 0.1 mg/dL
TC [1]: 55.6 mg/dL
TG [1]: 82.4 mg/dL
TP [1]: 5.4 g/dL
gamma-GTP [1]: 0.6 IU/L
TERMINAL_BW [2]: 270.9 g
TERMINAL_BW [3]: 321.6 g
TERMINAL_BW [4]: 398.1 g
APTT [2]: 22.7 s
Bas [2]: 0%
Eos [2]: 1%
Fbg [2]: 200.6 mg/dL
Hb [2]: 14 g/dL
Ht [2]: 40%
Lym [2]: 79.2%
MCH [2]: 21.2 pg
MCHC [2]: 35.1%
MCV [2]: 60.5 fL
Mono [2]: 3%
Neu [2]: 16.6%
PT [2]: 12.4 s
Plat [2]: 132.4 x10_4/uL
RBC [2]: 660.6 x10_4/ul
Ret [2]: 4.9%
WBC [2]: 99.6 x10_2/uL
APTT [3]: 20.3 s
Bas [3]: 0%
Eos [3]: 1%
Fbg [3]: 204.2 mg/dL
Hb [3]: 13.6 g/dL
Ht [3]: 39.5%
Lym [3]: 81.8%
MCH [3]: 20 pg
MCHC [3]: 34.3%
MCV [3]: 58.2 fL
Mono [3]: 2.6%
Neu [3]: 14.2%
PT [3]: 12.7 s
Plat [3]: 130.4 x10_4/uL
RBC [3]: 679 x10_4/ul
Ret [3]: 4.2%
WBC [3]: 153.1 x10_2/uL
APTT [4]: 21.7 s
Bas [4]: 0%
Eos [4]: 1.2%
Fbg [4]: 211.2 mg/dL
Hb [4]: 14.7 g/dL
Ht [4]: 41.8%
Lym [4]: 83.8%
MCH [4]: 19.1 pg
MCHC [4]: 35.1%
MCV [4]: 54.3 fL
Mono [4]: 2%
Neu [4]: 12.8%
PT [4]: 12.1 s
Plat [4]: 110.4 x10_4/uL
RBC [4]: 769.4 x10_4/ul
Ret [4]: 2.1%
WBC [4]: 141.2 x10_2/uL
KIDNEY_L [2]: 1.1 g
KIDNEY_R [2]: 1.2 g
KIDNEY_TOTAL [2]: 2.3 g
KIDNEY_L [3]: 1.3 g
KIDNEY_R [3]: 1.3 g
KIDNEY_TOTAL [3]: 2.6 g
KIDNEY_L [4]: 1.5 g
KIDNEY_R [4]: 1.5 g
KIDNEY_TOTAL [4]: 3 g
LIVER [2]: 14.5 g
LIVER [3]: 17 g
LIVER [4]: 20.1 g
A/G [2]: 1.9
ALP [2]: 856.8 IU/L
ALT [2]: 32.8 IU/L
AST [2]: 61 IU/L
BUN [2]: 16.8 mg/dL
CRE [2]: 0.4 mg/dL
Ca [2]: 10.4 mg/dL
Cl [2]: 102.8 meq/L
DBIL [2]: 0.07 mg/dL
GLC [2]: 211.2 mg/dL
IP [2]: 7.3 mg/dL
K [2]: 3.5 meq/L
LDH [2]: 207.2 IU/L
Na [2]: 141 meq/L
PL [2]: 108.8 mg/dL
RALB [2]: 3.7 g/dL
TBIL [2]: 0.1 mg/dL
TC [2]: 49.8 mg/dL
TG [2]: 53.4 mg/dL
TP [2]: 5.6 g/dL
gamma-GTP [2]: 1 IU/L
A/G [3]: 1.7
ALP [3]: 933 IU/L
ALT [3]: 38.4 IU/L
AST [3]: 63.4 IU/L
BUN [3]: 16.4 mg/dL
CRE [3]: 0.4 mg/dL
Ca [3]: 10.2 mg/dL
Cl [3]: 101.8 meq/L
DBIL [3]: 0.06 mg/dL
GLC [3]: 223.8 mg/dL
IP [3]: 6.1 mg/dL
K [3]: 3.8 meq/L
LDH [3]: 183.8 IU/L
Na [3]: 140.4 meq/L
PL [3]: 120.2 mg/dL
RALB [3]: 3.5 g/dL
TBIL [3]: 0.1 mg/dL
TC [3]: 55 mg/dL
TG [3]: 63.4 mg/dL
TP [3]: 5.6 g/dL
gamma-GTP [3]: 1 IU/L
A/G [4]: 1.7
ALP [4]: 726.6 IU/L
ALT [4]: 38.2 IU/L
AST [4]: 71 IU/L
BUN [4]: 15.8 mg/dL
CRE [4]: 0.4 mg/dL
Ca [4]: 10.5 mg/dL
Cl [4]: 102.4 meq/L
DBIL [4]: 0.08 mg/dL
GLC [4]: 208.6 mg/dL
IP [4]: 6.1 mg/dL
K [4]: 3.6 meq/L
LDH [4]: 236.8 IU/L
Na [4]: 141 meq/L
PL [4]: 132 mg/dL
RALB [4]: 3.8 g/dL
TBIL [4]: 0.1 mg/dL
TC [4]: 54.8 mg/dL
TG [4]: 106.2 mg/dL
TP [4]: 6 g/dL
gamma-GTP [4]: 1 IU/L
TERMINAL_BW [5]: 242 g
APTT [5]: 20.5 s
Bas [5]: 0%
Eos [5]: 1%
Fbg [5]: 199.2 mg/dL
Hb [5]: 13.2 g/dL
Ht [5]: 37.7%
Lym [5]: 73.8%
MCH [5]: 21 pg
MCHC [5]: 34.9%
MCV [5]: 60.3 fL
Mono [5]: 3.2%
Neu [5]: 21.8%
PT [5]: 12.3 s
Plat [5]: 125.3 x10_4/uL
RBC [5]: 625.4 x10_4/ul
Ret [5]: 3.9%
WBC [5]: 91.3 x10_2/uL
KIDNEY_L [5]: 1.1 g
KIDNEY_R [5]: 1.1 g
KIDNEY_TOTAL [5]: 2.2 g
LIVER [5]: 14.9 g
A/G [5]: 1.9
ALP [5]: 928.8 IU/L
ALT [5]: 42 IU/L
AST [5]: 70.2 IU/L
BUN [5]: 14.2 mg/dL
CRE [5]: 0.4 mg/dL
Ca [5]: 10.6 mg/dL
Cl [5]: 101.8 meq/L
DBIL [5]: 0.06 mg/dL
GLC [5]: 200.4 mg/dL
IP [5]: 5.9 mg/dL
K [5]: 3.9 meq/L
LDH [5]: 220.2 IU/L
Na [5]: 140.6 meq/L
PL [5]: 102.2 mg/dL
RALB [5]: 3.5 g/dL
TBIL [5]: 0.1 mg/dL
TC [5]: 43.6 mg/dL
TG [5]: 46.6 mg/dL
TP [5]: 5.3 g/dL
gamma-GTP [5]: 0.8 IU/L
TERMINAL_BW [6]: 267.7 g
TERMINAL_BW [7]: 303.4 g
TERMINAL_BW [8]: 368.7 g
APTT [6]: 21.4 s
Bas [6]: 0%
Eos [6]: 0.6%
Fbg [6]: 212.8 mg/dL
Hb [6]: 13.3 g/dL
Ht [6]: 38.9%
Lym [6]: 81.4%
MCH [6]: 20.9 pg
MCHC [6]: 34.3%
MCV [6]: 61.1 fL
Mono [6]: 3.2%
Neu [6]: 14.4%
PT [6]: 12.3 s
Plat [6]: 132.7 x10_4/uL
RBC [6]: 639.6 x10_4/ul
Ret [6]: 5.1%
WBC [6]: 129.1 x10_2/uL
APTT [7]: 21.9 s
Bas [7]: 0%
Eos [7]: 0.6%
Fbg [7]: 187.4 mg/dL
Hb [7]: 13.6 g/dL
Ht [7]: 39.6%
Lym [7]: 78.8%
MCH [7]: 19.9 pg
MCHC [7]: 34.4%
MCV [7]: 57.8 fL
Mono [7]: 3.4%
Neu [7]: 16.8%
PT [7]: 12.5 s
Plat [7]: 115.9 x10_4/uL
RBC [7]: 684.8 x10_4/ul
Ret [7]: 3.9%
WBC [7]: 125.1 x10_2/uL
APTT [8]: 22 s
Bas [8]: 0%
Eos [8]: 1%
Fbg [8]: 187.6 mg/dL
Hb [8]: 14.6 g/dL
Ht [8]: 41.5%
Lym [8]: 80.2%
MCH [8]: 19.1 pg
MCHC [8]: 35.1%
MCV [8]: 54.4 fL
Mono [8]: 3.4%
Neu [8]: 15.2%
PT [8]: 12.3 s
Plat [8]: 109.1 x10_4/uL
RBC [8]: 762.4 x10_4/ul
Ret [8]: 2%
WBC [8]: 121.5 x10_2/uL
KIDNEY_L [6]: 1.1 g
KIDNEY_R [6]: 1.2 g
KIDNEY_TOTAL [6]: 2.3 g
KIDNEY_L [7]: 1.3 g
KIDNEY_R [7]: 1.3 g
KIDNEY_TOTAL [7]: 2.6 g
KIDNEY_L [8]: 1.5 g
KIDNEY_R [8]: 1.6 g
KIDNEY_TOTAL [8]: 3.1 g
LIVER [6]: 18 g
LIVER [7]: 19.3 g
LIVER [8]: 21.8 g
A/G [6]: 2.1
ALP [6]: 1006.8 IU/L
ALT [6]: 31.4 IU/L
AST [6]: 62.8 IU/L
BUN [6]: 17.2 mg/dL
CRE [6]: 0.4 mg/dL
Ca [6]: 10.7 mg/dL
Cl [6]: 102 meq/L
DBIL [6]: 0.058 mg/dL
GLC [6]: 214.2 mg/dL
IP [6]: 7.4 mg/dL
K [6]: 3.5 meq/L
LDH [6]: 285 IU/L
Na [6]: 141.2 meq/L
PL [6]: 92.2 mg/dL
RALB [6]: 4 g/dL
TBIL [6]: 0.1 mg/dL
TC [6]: 37.6 mg/dL
TG [6]: 44.2 mg/dL
TP [6]: 5.9 g/dL
gamma-GTP [6]: 1 IU/L
A/G [7]: 2.2
ALP [7]: 750.6 IU/L
ALT [7]: 41.8 IU/L
AST [7]: 59.6 IU/L
BUN [7]: 17.6 mg/dL
CRE [7]: 0.4 mg/dL
Ca [7]: 10.5 mg/dL
Cl [7]: 101.4 meq/L
DBIL [7]: 0.062 mg/dL
GLC [7]: 228.2 mg/dL
IP [7]: 6.1 mg/dL
K [7]: 3.8 meq/L
LDH [7]: 172 IU/L
Na [7]: 140.4 meq/L
PL [7]: 113.2 mg/dL
RALB [7]: 4 g/dL
TBIL [7]: 0.1 mg/dL
TC [7]: 44 mg/dL
TG [7]: 46.4 mg/dL
TP [7]: 5.9 g/dL
gamma-GTP [7]: 0.8 IU/L
A/G [8]: 1.9
ALP [8]: 787 IU/L
ALT [8]: 43.4 IU/L
AST [8]: 70.8 IU/L
BUN [8]: 15.4 mg/dL
CRE [8]: 0.4 mg/dL
Ca [8]: 10.2 mg/dL
Cl [8]: 101.8 meq/L
DBIL [8]: 0.068 mg/dL
GLC [8]: 190 mg/dL
IP [8]: 5.1 mg/dL
K [8]: 3.6 meq/L
LDH [8]: 208.6 IU/L
Na [8]: 140.4 meq/L
PL [8]: 120.6 mg/dL
RALB [8]: 4 g/dL
TBIL [8]: 0.1 mg/dL
TC [8]: 46 mg/dL
TG [8]: 47.6 mg/dL
TP [8]: 6.1 g/dL
gamma-GTP [8]: 0.6 IU/L
